Series [1] deals with Epidermal growth factor receptor (Homo sapiens), P00533 [L861Q]. Put plainly: Inhibition of human partial length EGFR L861Q mutant (R669 to V1011 residues) expressed in bacterial expression system at 1 uM by Kinomescan method relative to control.
In series [2] the test system is B cell. Put plainly: Antiproliferative activity against goat anti-human IgM antibody/BAFF-stimulated human PBMC-derived B cells assessed as decrease in cell viability pretreated for 30 mins followed by goat anti-human IgM antibody/BAFF stimulation for 3 days by CellTiter-Glo reagent assay. The series is classed as functional, cell-based.
The target in series [3] is Cyclin-dependent kinase 7 (Homo sapiens) (UniProt P50613). The experiment in a line: Inhibition of wild-type human full length CDK7 (M1 to L344 residues) expressed in mammalian expression system at 1 uM by Kinomescan method relative to control.
For series [4], the target named is Serine/threonine-protein kinase pim-1 (Homo sapiens) (UniProt P11309). Put plainly: Inhibition of wild-type human partial length PIM1 (A15 to K313 residues) expressed in bacterial expression system at 1 uM by Kinomescan method relative to control.
Series [5] addresses Tyrosine-protein kinase TXK (Homo sapiens, UniProt P42681). The experiment in a line: Binding affinity to wild-type human partial length TXK tyrosine kinase (L238 to W527 residues) expressed in bacterial expression system by Kinomescan method.
Series [6] deals with 3-phosphoinositide-dependent protein kinase 1 (Homo sapiens) (UniProt O15530). Put plainly: Inhibition of wild-type human full length PDPK1 (M1 to Q556 residues) expressed in bacterial expression system at 1 uM by Kinomescan method relative to control.
The target of series [7] is Platelet-derived growth factor receptor alpha (Homo sapiens) (UniProt P16234). The experiment in a line: Inhibition of wild-type human partial length PDGFRA (V575 to D1002 residues) expressed in mammalian expression system at 1 uM by Kinomescan method relative to control.
For series [8], the target named is Proto-oncogene tyrosine-protein kinase ROS (Homo sapiens) (UniProt P08922). The experiment in a line: Inhibition of wild-type human partial length ROS1 (A1921 to N2240 residues) expressed in bacterial expression system at 1 uM by Kinomescan method relative to control.
For series [9], the system named is B cell. Put plainly: Antiproliferative activity against goat anti-human IgM antibody/recombinant human IL4-stimulated human PBMC-derived B cells assessed as decrease in cell viability pretreated for 30 mins followed by goat anti-human IgM antibody/recombinant human IL4 stimulation for 3 days by CellTiter-Glo reagent assay. The series is classed as functional, cell-based.

Series [10] addresses Serine/threonine-protein kinase PAK 5 (Homo sapiens) (UniProt Q9P286). The experiment in a line: Inhibition of wild-type human partial length PAK7 (Y400 to H719 residues) expressed in bacterial expression system at 1 uM by Kinomescan method relative to control.
A further series addresses Cytochrome P450 2C9 (Homo sapiens, UniProt P11712). Put plainly: Inhibition of CYP2C9 (unknown origin).
Series [11] addresses Tyrosine-protein kinase Tec (Homo sapiens, UniProt P42680). The experiment in a line: Binding affinity to wild-type human partial length TEC (L341 to D620 residues) expressed in bacterial expression system by Kinomescan method.
In another series the target is Cytochrome P450 1A2 (Homo sapiens, UniProt P05177). The experiment in a line: Inhibition of CYP1A2 (unknown origin).
The next series deals with Cytochrome P450 2C19 (Homo sapiens, UniProt P33261). The experiment in a line: Inhibition of CYP2C19 (unknown origin).
Series [12] deals with Mitogen-activated protein kinase 15 (Homo sapiens) (UniProt Q8TD08). Put plainly: Inhibition of wild-type human partial length ERK8 (M1 to P437 residues) expressed in bacterial expression system at 1 uM by Kinomescan method relative to control.
Series [13] concerns B cell. The experiment in a line: Antiproliferative activity against goat anti-human IgM antibody-stimulated human PBMC-derived B cells assessed as decrease in cell viability pretreated for 30 mins followed by goat anti-human IgM antibody stimulation for 3 days by CellTiter-Glo reagent assay. In kind it is functional, cell-based.
A further series has as its target Cytochrome P450 3A4 (Homo sapiens, UniProt P08684). Put plainly: Inhibition of CYP3A4 (unknown origin).
In series [14] the target is Tyrosine-protein kinase ITK/TSK (Homo sapiens, UniProt Q08881). The experiment in a line: Binding affinity to wild-type human partial length ITK (R335 to L620 residues) expressed in bacterial expression system by Kinomescan method.
A short description of series [15]: Plasma clearance in Sprague-Dawley rat at 1 mg/kg, iv relative to hepatic blood flow. The series is classed as ADME, organism-based. To be noted: in vivo.
The test system of series [16] is ALK tyrosine kinase receptor (Homo sapiens), Q9UM73 [L1196M]. The experiment in a line: Inhibition of wild-type human partial length ALK L1196M mutant (I1088 to E1409 residues) expressed in mammalian expression system at 10 uM by Kinomescan method relative to control.
Series [17] has as its system eIF-2-alpha kinase GCN2 (Homo sapiens), Q9P2K8 [S808G]. The experiment in a line: Inhibition of wild-type human partial length GCN2 S808G mutant kinase domain 2 (R585 to T1018 residues) expressed in bacterial expression system at 10 uM by Kinomescan method relative to control.
Series [18] has as its target Cyclin-dependent kinase 5 (Homo sapiens) (UniProt Q00535). Put plainly: Inhibition of wild-type human full length CDK5 (M1 to P292 residues) expressed in bacterial expression system at 10 uM by Kinomescan method relative to control.
Series [19] concerns the target Serine/threonine-protein kinase MRCK beta (Homo sapiens) (UniProt Q9Y5S2). Put plainly: Inhibition of wild-type human partial length MRCKB (L56 to S417 residues) expressed in bacterial expression system at 10 uM by Kinomescan method relative to control.
The target of series [20] is Phosphatidylinositol 4-phosphate 5-kinase type-1 alpha (Homo sapiens) (UniProt Q99755). Put plainly: Inhibition of wild-type human full length PIP5K1A (M1 to H562 residues) expressed in bacterial expression system at 10 uM by Kinomescan method relative to control.
In series [21] the target is Atypical kinase COQ8A, mitochondrial (Homo sapiens) (UniProt Q8NI60). The experiment in a line: Inhibition of wild-type human […] ADCK3 (M280 to Q647 residues) expressed in bacterial expression system at 10 uM by Kinomescan method relative to control.
Series [22] deals with Phosphatidylinositol 3-kinase C2 domain-containing subunit gamma (Homo sapiens) (UniProt O75747). The experiment in a line: Inhibition of wild-type human partial length PIK3C2G (M1 to I1446 residues) expressed in mammalian expression system at 10 uM by Kinomescan method relative to control.
Series [23] deals with Serine/threonine-protein kinase RIO3 (Homo sapiens) (UniProt O14730). Put plainly: Inhibition of wild-type human full length RIOK3 (M1 to E519 residues) expressed in bacterial expression system at 10 uM by Kinomescan method relative to control.
Series [24] deals with Citron Rho-interacting kinase (Homo sapiens) (UniProt O14578). The experiment in a line: Inhibition of wild-type human partial length CIT (M68 to E432 residues) expressed in bacterial expression system at 10 uM by Kinomescan method relative to control.
Series [25] deals with cAMP-dependent protein kinase catalytic subunit beta (Homo sapiens) (UniProt P22694). The experiment in a line: Inhibition of wild-type human full length PKAC-beta (M1 to F351 residues) expressed in bacterial expression system at 10 uM by Kinomescan method relative to control.

Some results are limits rather than exact numbers.

For `O=C(Nc1cccc([C@@H]2CN(c3ncnc4[nH]ccc34)CCN2CCO)c1)Nc1c(F)cccc1N1CCCC1`, the inhibition was determined as 81% in series [1]; 100% in series [3]; 86% in series [4]; 34% in series [6]; 85% in series [7]; 97% in series [8]. Also, the inhibition in [10] turned out to be 98%; in [12] it was 81%. In addition, the IC50 in the series with B cell [2] is 92 nM; in the series on B cell [9], 238 to 240 nM; on Cytochrome P450 2C9, over 5000 nM; against Cytochrome P450 1A2, over 5000 nM; against Cytochrome P450 2C19, over 5000 nM; in the series with B cell [13], 251 nM. Moreover, the IC50 against Cytochrome P450 3A4 was over 5000 nM. Besides, the Kd in series [5] was 530 nM; in [11] it was 420 nM; in [14], 5 nM. Further, in series [15], the CL came to 11%.

With `O=C(Nc1cccc([C@H]2CCCN(c3ncnc4[nH]ccc34)C2)c1)Nc1ccccc1N1CCCC1`, the inhibition in series [16] is 63%; in series [17] it was 46%; in series [18], 92%; in series [19] it was 90%; in series [20], 5.1%; in [21], 100%. Besides, the inhibition is 89% in [22], 0.35% in series [23], 0.2% in [24] and 100% in series [25]. Also, the IC50 in the series on B cell [2] is 916 nM; in the series with B cell [9], 1880 nM; on Cytochrome P450 2C9, 1800 nM; at Cytochrome P450 1A2, 2200 nM; against Cytochrome P450 2C19, 2200 nM; with B cell [13], 1010 nM. Moreover, the IC50 against Cytochrome P450 3A4 was 1000 nM. In addition, the figures for the Kd in [5], in series [11] and in series [14] were over 1000 nM, over 1000 nM and 400 nM, respectively.

These data come from ChEMBL document CHEMBL4387741, “Optimization of novel reversible Bruton's tyrosine kinase inhibitors identified using Tethering-fragment-based screens” (Bioorg Med Chem, 2019).
